Measurements reported in patent US20260034173A1, “USE OF MANGANESE-CONTAINING COMPOUND IN REDUCING LEVEL OF URIC ACID OF MAMMALIAN SUBJECT” (Shanghai Shiqu Pharmaceutical Technology Co., Ltd., priority 2022, published 2026).

What was measured:
[1] = system: urate oxidase knockout (UOX KO) mice; experiment: Experiment on urate oxidase knockout (UOX KO) mice; type: in vivo; conditions: gavage daily; blood and 24-hour urine
From the text: Urate oxidase knockout (UOX KO) mice aged 6 to 8 weeks were selected, and urine and blood were collected after one week of acclimation to test urine uric acid and blood uric acid levels. […] Mice were gavaged with corresponding drugs daily. After the start of drug administration, the blood of mice was collected every other week to prepare serum, and 24-hour urine was collected to detect the uric acid content in the urine using a uric acid assay kit.

[2] = system: oteracil potassium and adenine induced hyperuricemia model mice; experiment: Oteracil potassium and adenine induced hyperuricemia model mice; type: in vivo, KM mice; conditions: day 6; allopurinol 50 mg/L drinking water, febuxostat 5 mg/kg/day gavage, manganese oxides 1.16 w/w % in diet
From the text: Oteracil potassium and adenine are known to be model drugs capable of inducing hyperuricemia in mice. Specifically, oteracil potassium is a urate oxidase inhibitor that can inhibit further metabolism of uric acid in mice, thereby increasing the concentration of uric acid in the blood of mice; adenine can damage the kidneys, thereby reducing the excretion of uric acid from the kidneys of mice. […] Six days after the beginning of the experiment, 24-hour urine of each group of mice was collected and uric acid content in the urine was detected by the uric acid assay kit to investigate the effects of various experimental substances on the amount of uric acid excreted in the urine of mice.
The control group was fed with basic mouse diet the first day (i.e. the day of the experiment) to the seventh day after the start of the experiment, and the other groups were fed with modeling mouse diet (4.4 w/w % oteracil potassium and 0.44 w/w % adenine were added into the basic mouse diet) for inducing hyperuricemia. […] The uric acid level in urine was measured using a uric acid assay kit (Solarbio, Beijing, China), and the amount of uric acid excreted through urine in 24 hours was calculated based on the urine volume.

[3] = system: oteracil potassium and hypoxanthine induced hyperuricemia model mice; experiment: Oteracil potassium and hypoxanthine induced hyperuricemia model mice; type: in vivo, C57BL/6J mice; conditions: day 8; benzbromarone 10 mg/kg gavage, allopurinol 50 mg/L drinking water, manganese oxides 1.14 w/w % in diet
Method: Hypoxanthine can be metabolized into uric acid in the body, so it can also be used in combination with oteracil potassium as a model drug for inducing hyperuricemia in mice. In this example, the healthy mice were randomly divided into 7 groups, the mouse hyperuricemia model was established by administering oteracil potassium and hypoxanthine (they were injected intraperitoneally together) to 6 groups of mice, and 1 group of healthy mice injected intraperitoneally with normal saline was taken as the blank control group. The mice of the experimental groups were given the corresponding experimental substances according to the dosing regimen described in the following experimental method.
From the first day (i.e. the day of the experiment) to the eighth day after the start of the experiment, the blank control group was intraperitoneally injected with normal saline at 9:00 a.m. and 5:00 p.m. every day, and the remaining groups were intraperitoneally injected with modeling solution (100 mg/kg hypoxanthine+100 mg/kg oteracil potassium) at 9:00 am, and 5:00 p.m. every day. The benzbromarone group was administered with benzbromarone solution (10 mg/kg) by gavage at 10 am every day. […]

## Oc1ncnc2[nH]ncc12 [allopurinol]
[1]
  reduction of uric acid in UOX KO mice: effective in reducing uric acid
[2]
  amount of uric acid excreted in the urine within 24 hours (FIG. 20): at a high level
[3]
  serum uric acid level (FIG. 22): significantly reduced

## CCc1oc2ccccc2c1C(=O)c1cc(Br)c(O)c(Br)c1 [benzbromarone]
[3]
  serum uric acid level (FIG. 22): significantly reduced

## Cc1nc(-c2ccc(OCC(C)C)c(C#N)c2)sc1C(=O)O [febuxostat]
[2]
  amount of uric acid excreted in the urine within 24 hours (FIG. 20): at a high level
